The record followed here is patent publication US20220062296A1, “COMBINATIONS OF GABAA ALPHA 5 AGONISTS AND SV2A INHIBITORS AND METHODS OF USING IN THE TREATMENT OF COGNITIVE IMPAIRMENT” (AGENEBIO, INC., priority 2020, published 2022).

The test deals with reelin in Entorhinal Cortex (EC2). Put plainly: Reelin mRNA in situ hybridization in entorhinal cortex (EC2). The following applies: 10 mg/kg/day for 28 days; vs AI-VEH p=0.033.

`CC[C@@H](C(N)=O)N1CCCC1=O` [levetiracetam, (2S)-2-(2-oxopyrrolidin-1-yl)butanamide]: the “reelin mRNA expression in the lateral entorhinal cortex” value was “significantly increased the expression of reelin”.
